Patent US9993459B2, “Selective HDAC6 inhibitors and uses thereof” (Universiteit Gent, priority 2015, dated 2018)
Several values for one entry are separate records, joined by “and”; a condition that tells them apart may be missing. Equal values may be shown once. Read-outs that look alike come from different tables or passages of the source.

Experiments:
HDAC11 = biological target: T1, HDAC11 (Homo sapiens, UniProt Q96DB2); assay: In vitro HDAC isozyme selectivity screen: HDAC11; format: biochemical; settings: Table 2
T1 sequence (Q96DB2 1-347): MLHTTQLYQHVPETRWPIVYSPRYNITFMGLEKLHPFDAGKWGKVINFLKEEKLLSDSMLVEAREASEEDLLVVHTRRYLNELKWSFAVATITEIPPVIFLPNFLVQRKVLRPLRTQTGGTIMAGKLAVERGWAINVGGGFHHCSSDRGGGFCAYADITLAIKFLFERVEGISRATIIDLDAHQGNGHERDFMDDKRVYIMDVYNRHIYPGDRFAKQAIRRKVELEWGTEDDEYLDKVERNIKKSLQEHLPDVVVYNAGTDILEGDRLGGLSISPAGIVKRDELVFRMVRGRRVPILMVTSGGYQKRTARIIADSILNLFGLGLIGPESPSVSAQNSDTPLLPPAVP

HDAC6 = biological target: T2, HDAC6 (Homo sapiens, UniProt Q9UBN7); assay: In vitro HDAC6 inhibition; format: biochemical; settings: for inhibition at 10 µM: HDAC6, 10 μM
T2 sequence (Q9UBN7 1-1215): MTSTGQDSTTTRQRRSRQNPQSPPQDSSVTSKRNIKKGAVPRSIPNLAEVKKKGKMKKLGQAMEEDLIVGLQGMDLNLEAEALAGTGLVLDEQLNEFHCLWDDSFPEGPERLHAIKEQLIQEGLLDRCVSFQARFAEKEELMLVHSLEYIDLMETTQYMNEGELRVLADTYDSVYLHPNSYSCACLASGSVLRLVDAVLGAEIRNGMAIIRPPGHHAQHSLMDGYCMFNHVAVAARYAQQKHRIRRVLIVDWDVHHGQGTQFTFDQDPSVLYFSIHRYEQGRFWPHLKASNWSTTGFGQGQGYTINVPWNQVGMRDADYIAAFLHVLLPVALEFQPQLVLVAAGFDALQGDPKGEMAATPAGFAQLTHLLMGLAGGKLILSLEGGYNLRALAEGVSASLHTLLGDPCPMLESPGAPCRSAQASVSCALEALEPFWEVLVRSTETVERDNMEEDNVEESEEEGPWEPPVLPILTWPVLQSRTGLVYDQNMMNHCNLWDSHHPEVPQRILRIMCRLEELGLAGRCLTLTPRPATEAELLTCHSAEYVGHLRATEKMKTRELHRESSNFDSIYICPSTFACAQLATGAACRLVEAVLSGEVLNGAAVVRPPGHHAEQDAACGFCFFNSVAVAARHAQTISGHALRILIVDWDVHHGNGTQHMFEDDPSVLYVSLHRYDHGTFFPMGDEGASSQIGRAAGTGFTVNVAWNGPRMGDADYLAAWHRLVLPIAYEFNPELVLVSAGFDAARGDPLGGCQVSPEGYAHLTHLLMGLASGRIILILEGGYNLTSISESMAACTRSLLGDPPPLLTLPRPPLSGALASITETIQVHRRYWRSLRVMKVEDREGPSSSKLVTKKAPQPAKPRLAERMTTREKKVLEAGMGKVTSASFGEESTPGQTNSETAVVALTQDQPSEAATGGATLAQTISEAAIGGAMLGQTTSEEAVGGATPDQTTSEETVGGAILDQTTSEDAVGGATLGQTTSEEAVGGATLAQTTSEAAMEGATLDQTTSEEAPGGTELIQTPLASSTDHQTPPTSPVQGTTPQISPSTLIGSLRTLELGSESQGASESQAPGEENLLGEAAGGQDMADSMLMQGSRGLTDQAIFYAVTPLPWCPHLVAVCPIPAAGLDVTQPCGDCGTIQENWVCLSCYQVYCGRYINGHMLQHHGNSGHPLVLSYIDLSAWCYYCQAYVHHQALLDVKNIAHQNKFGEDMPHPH

HDAC4 = HDAC4 (Homo sapiens, UniProt P56524); assay: In vitro HDAC isozyme selectivity screen: HDAC4; format: biochemical; settings: for IC50: Table 2
Chain of HDAC4 (P56524 whole entry, species assumed): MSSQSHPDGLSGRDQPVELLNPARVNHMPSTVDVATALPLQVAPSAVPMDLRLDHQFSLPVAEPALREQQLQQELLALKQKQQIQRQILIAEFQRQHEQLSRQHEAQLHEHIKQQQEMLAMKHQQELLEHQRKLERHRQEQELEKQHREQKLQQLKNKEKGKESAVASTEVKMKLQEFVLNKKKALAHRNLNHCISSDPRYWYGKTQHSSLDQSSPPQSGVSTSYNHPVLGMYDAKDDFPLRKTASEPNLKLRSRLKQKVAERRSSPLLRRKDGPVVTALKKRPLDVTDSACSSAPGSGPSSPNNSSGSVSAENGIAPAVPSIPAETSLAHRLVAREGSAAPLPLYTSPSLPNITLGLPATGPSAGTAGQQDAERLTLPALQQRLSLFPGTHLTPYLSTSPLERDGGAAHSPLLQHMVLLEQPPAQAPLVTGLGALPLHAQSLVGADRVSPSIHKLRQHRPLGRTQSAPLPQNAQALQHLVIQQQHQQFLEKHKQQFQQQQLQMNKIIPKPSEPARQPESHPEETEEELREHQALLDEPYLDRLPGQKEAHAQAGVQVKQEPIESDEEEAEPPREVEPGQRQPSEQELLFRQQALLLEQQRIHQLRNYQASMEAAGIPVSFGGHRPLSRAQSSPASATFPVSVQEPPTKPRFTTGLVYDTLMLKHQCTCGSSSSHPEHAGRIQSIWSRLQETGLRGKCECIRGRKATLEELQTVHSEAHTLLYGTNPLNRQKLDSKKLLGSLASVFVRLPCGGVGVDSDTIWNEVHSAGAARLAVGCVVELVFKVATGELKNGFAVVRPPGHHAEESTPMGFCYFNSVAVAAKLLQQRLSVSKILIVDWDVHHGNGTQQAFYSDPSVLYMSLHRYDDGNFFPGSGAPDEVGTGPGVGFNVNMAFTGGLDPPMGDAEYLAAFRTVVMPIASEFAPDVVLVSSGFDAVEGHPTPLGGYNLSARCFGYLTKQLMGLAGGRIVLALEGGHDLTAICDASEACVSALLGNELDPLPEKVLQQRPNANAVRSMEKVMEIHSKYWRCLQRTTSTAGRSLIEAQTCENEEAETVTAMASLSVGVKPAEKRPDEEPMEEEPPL

HDAC5 = HDAC5 (Homo sapiens, UniProt Q9UQL6); assay: In vitro HDAC isozyme selectivity screen: HDAC5; format: biochemical; settings: for IC50: Table 2
Chain of HDAC5 (Q9UQL6 whole entry, species assumed): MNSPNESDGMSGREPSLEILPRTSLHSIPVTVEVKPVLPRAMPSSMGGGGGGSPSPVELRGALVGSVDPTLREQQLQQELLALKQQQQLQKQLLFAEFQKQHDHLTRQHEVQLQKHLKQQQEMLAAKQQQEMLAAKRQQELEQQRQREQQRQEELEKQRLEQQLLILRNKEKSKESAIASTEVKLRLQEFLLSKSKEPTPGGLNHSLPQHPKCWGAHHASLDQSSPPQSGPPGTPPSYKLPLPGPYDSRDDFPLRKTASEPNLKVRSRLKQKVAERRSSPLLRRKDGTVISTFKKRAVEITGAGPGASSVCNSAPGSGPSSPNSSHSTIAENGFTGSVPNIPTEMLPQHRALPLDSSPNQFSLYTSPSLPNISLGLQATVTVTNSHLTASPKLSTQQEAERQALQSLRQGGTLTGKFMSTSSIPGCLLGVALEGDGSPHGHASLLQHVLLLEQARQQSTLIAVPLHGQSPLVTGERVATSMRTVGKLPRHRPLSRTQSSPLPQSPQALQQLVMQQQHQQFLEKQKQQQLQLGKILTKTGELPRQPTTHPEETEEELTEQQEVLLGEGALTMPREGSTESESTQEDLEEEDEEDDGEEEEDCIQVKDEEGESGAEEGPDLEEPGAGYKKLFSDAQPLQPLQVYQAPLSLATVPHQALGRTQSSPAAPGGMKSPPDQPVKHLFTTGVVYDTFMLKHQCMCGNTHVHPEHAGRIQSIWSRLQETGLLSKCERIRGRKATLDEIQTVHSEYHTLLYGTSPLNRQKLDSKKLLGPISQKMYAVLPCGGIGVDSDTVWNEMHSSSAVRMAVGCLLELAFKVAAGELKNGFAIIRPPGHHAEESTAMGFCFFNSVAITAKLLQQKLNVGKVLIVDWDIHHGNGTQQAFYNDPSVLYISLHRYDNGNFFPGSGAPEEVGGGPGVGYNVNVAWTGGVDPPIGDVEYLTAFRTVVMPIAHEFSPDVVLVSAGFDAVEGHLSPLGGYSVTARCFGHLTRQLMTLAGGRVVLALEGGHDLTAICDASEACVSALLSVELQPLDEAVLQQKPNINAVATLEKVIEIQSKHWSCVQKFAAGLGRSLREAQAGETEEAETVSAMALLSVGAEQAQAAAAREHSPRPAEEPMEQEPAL

[1] = test system: acetylation of α-tubulin in Neuro-2a cells; assay: Acetylation level of α-tubulin in Neuro-2a cells (Western blot); format: cell-based, Mouse; settings: for normalized ratio Acetyl α-Tubulin/α-Tubulin against Tubastatin A, Average: Average of N = 1 to 4; for effect on the acetylation level of α-tubulin compared with Tubastatin A: Neuro-2a cells, in words
Protocol: FIG. 1: Potency of inhibiting HDAC6 by compounds 7a, 7b and 13a in Neuro-2a cells. A. Cells were treated overnight with different concentrations of the HDAC6 inhibitors and blotted of the acetylation of α-tubulin.
Mouse neuroblastoma (Neuro-2a) cells were grown in a 1:1 mix of D-MEM (Dulbecco's Modified Eagle Medium) and F12 medium supplemented with glutamax (Invitrogen), 100 μg/ml streptomycin, 100 U/ml penicillin (Invitrogen), 10% fetal calf serum (Greiner Bio-one), 1% non-essential amino acids (Invitrogen) and 1.6% NaHCO3 (Invitrogen) at 37° C. and 7.5% CO2. To split the cells, cells were washed with Versene (Invitrogen) and dissociated with 0.05% Trypsine-EDTA (Invitrogen).
For sodium dodecyl sulfate-polyacrylamide gel electrophoresis (SDS-PAGE) analysis, transfected cells were collected using the EpiQuik Total Histone Extraction Kit (EpiGentek) according to manufacturer's instructions. Protein concentrations were determined using microBCA kit (Thermo Fisher Scientific Inc., Pittsburgh, Pa., USA) according to manufacturer's instructions. Before resolving the samples on a 12% SDS-PAGE gel, samples containing equal amounts of protein were supplemented with reducing sample buffer (Thermo Scientific) and boiled at 95° C. for 5 min. After electrophoresis, the proteins were transferred to a polyvinylidene difluoride (PVDF) membrane (Millipore Corp., Bedford, Mass., USA). The non-specific binding was blocked by incubation of the membrane in 5% bovine serum albumin (BSA), diluted in Tris Buffered Saline Tween (TBST, 50 mM TRIS, 150 mM NaCl, 0.1% Tween-20 (Applichem, Darmstadt, Duitsland) for 1 h at room temperature followed by incubation with primary antibodies overnight. The antibodies, diluted in TBS-T, were directed against α-tubulin (1/5000, T6199, Sigma-Aldrich), and acetylated α-tubulin (1/5000, T6793 monoclonal, Sigma-Aldrich). The secondary antibodies, coupled to alkaline phosphatase (anti-mouse or anti-rabbit, 1/5000, Sigma-Aldrich) were used. Blots were visualised by adding the ECF substrate (Enhanced Chemical Fluorescence, GE Healthcare, Uppsala, Sweden) and imaged with the ImageQuant_LAS 4000. A mild reblotting buffer (Millipore) was applied to strip the blots. ImageQuant TL version 7.0-software was used to quantify the blots.
Neuro-2a cells were treated overnight with different concentrations of the HDAC6 inhibitors and the effect on the acetylation level of α-tubulin was determined using Western blots (FIG. 1).

[2] = test system: glucocorticoid receptor, GR; assay: GRE-dependent luciferase reporter p(GRE)2-50-luc in A549 cells; format: cell-based; settings: for DEX-activated GR-driven gene expression (transcriptional activity of GR): A549, 1 μM or 10 μM, 1 h pre-incubation then DEX 1 μM 5 h

| SMILES | IC50 (HDAC11) [µM] | inhibition at 10 µM (HDAC6) [%] | IC50 (HDAC6; HDAC6, Table 1, read-out: IC50) [µM] | IC50 (HDAC4) [µM] | IC50 (HDAC5) [µM] | normalized ratio Acetyl α-Tubulin/α-Tubulin against Tubastatin A, Average ([1]; 10 nM, overnight, Neuro-2a) | normalized ratio Acetyl α-Tubulin/α-Tubulin against Tubastatin A, Average ([1]; 50 nM, overnight, Neuro-2a) | normalized ratio Acetyl α-Tubulin/α-Tubulin against Tubastatin A, Average ([1]; 100 nM, overnight, Neuro-2a) | normalized ratio Acetyl α-Tubulin/α-Tubulin against Tubastatin A, Average ([1]; 500 nM, overnight, Neuro-2a) | normalized ratio Acetyl α-Tubulin/α-Tubulin against Tubastatin A, Average ([1]; 1 μM, overnight, Neuro-2a) | effect on the acetylation level of α-tubulin compared with Tubastatin A [1] | DEX-activated GR-driven gene expression (transcriptional activity of GR) [2] | enhancement of GR-driven gene expression ([2]; A549, 1 μM, with DEX 1 μM) | IC50 (HDAC6; Table 2, read-out: IC50 HDAC6) [µM] | effect at 100 μM, HDAC4 (HDAC4; 100 μM) | effect at 100 μM, HDAC5 (HDAC5; 100 μM) | normalized ratio Acetyl α-Tubulin/α-Tubulin against Tubastatin A ([1]; 1 μM, overnight, Neuro-2a, single experiments N = 1 to 4, Tub A 1 μM = 100) |
| --- | --- | --- | --- | --- | --- | --- | --- | --- | --- | --- | --- | --- | --- | --- | --- | --- | --- |
| O=C(NO)c1ccc(NCc2csc3cc(Br)ccc23)cc1 [Compound 13a, 6-bromo-3-[(4-hydroxycarbamoylphenyl)aminomethyl]-benzothiophene] | 1.2 | 99.3 | 0.064 | 31 | 45 | 8.35 | 13.93 | 23.21 | 69.97 | 80.44 | – | – | – | – | – | – | – |
| O=C(NO)c1ccc(NCc2csc3ccccc23)cc1 [Compound 7a, 3-[(4-hydroxycarbamoylphenyl)aminomethyl]benzothiophene] | 31 | 99.8 | 0.014 | 10 | 17 | 24.02 | 46.70 | 67.40 | 139.23 | 90.45 | same effect on the acetylation level of α-tubulin as Tubastatin A | leaves the transcriptional activity of GR unhampered | able to significantly enhance GR-driven gene expression | – | – | – | – |
| O=C(NO)c1ccc(NCc2csc3ccc(Br)cc23)cc1 [Compound 7b, 5-bromo-3-[(4-hydroxycarbamoylphenyl)aminomethyl]-benzothiophene] | 15 | 99.2 | 0.037 | > 100 | > 100 | 8.35 | 15.75 | 27.24 | 63.70 | 83.19 | same effect on the acetylation level of α-tubulin as Tubastatin A | leaves the transcriptional activity of GR unhampered | – | 0.037 | less than 50% | less than 50% | 99.53 and 83.22 and 69.97 and 80.03 |
